pEC50: −log10 of the molar value. Where two headings read alike, the source gives them in different places.
Tested on: G-protein
Assay: Functional [35S]GTPγS binding assay on rat brain membrane homogenates
Type: biochemical
Method: The experiments were performed by [35S]GTPγS binding assays to control the GDP to GTP exchange of the α-subunit of Gi-protein. […] We examined the opioid receptor binding affinity of 5 in competition binding experiments, using opioid receptor selective radioligands. […]
Functional [35S]GTPγS binding experiments
The functional [35S]GTPγS binding experiments were performed as previously described,5,6 with modifications. Briefly the rat brain membrane homogenates containing ~10 µg/mL protein were incubated at 30 °C for 60 min in Tris-EGTA buffer (pH 7.4) composed of 50 mM Tris-HCl, 1 mM EGTA, 3 mM MgCl2, 100 mM NaCl, containing 20 MBq/0.05 cm3 [35S]GTPγS (0.05 nM) and […]
compound 9 together with excess GDP (30 µM) in a final volume of 1 mL. Total binding was measured in the absence of test compounds, non-specific binding was determined in the presence of 10 µM unlabelled GTPγS. The bound and unbound [35S]GTPγS was separated as described in the […]
competition binding assays section through Whatmann GF/B glass fibers. The radioactivity of the filters was also detected as described above. [35S]GTPγS binding experiments were performed in triplicates and repeated at least three times.
The specific binding of all radiolabeled compounds was calculated by the subtraction of non-specific binding from total binding and was given in percentage. The data was normalized to total specific binding, which was settled 100%, which in case of [35S]GTPγS also represents the basal activity of the G-protein. Experimental data were presented as means ± S.E.M in the function of the applied ligand concentration range in logarithm form. Points were fitted with the professional curve fitting program, GraphPad Prism 5.0 (GraphPad Prism Software Inc., San Diego, CA), using non-linear regression. In the radioligand competition binding assays the ‘One-site competition’, while in [35S]GTPγS binding assays the ‘Sigmoid dose-response’ equation was applied to determine IC50 (unlabeled ligand affinity) and the maximum G-protein efficacy (Emax) and ligand potency (EC50), respectively. For IC50 and EC50 values standard error is only given in their logarithm form by the curve fitting program due to the data representation. In competition binding experiments the Ki value was calculated according to Cheng-Prusoff equation.7 […]
binding assays. In figure B, 5 is indicated again for better comparison. Figures represents the specific binding of [35S]GTPγS in percentage in the presence of increasing concentrations (10-10-10-5 M) of the indicated ligands in rat brain membrane homogenates. “Basal” on the x-axis indicates the basal activity of the monitored G-protein, which is measured in the absence of the compounds and also represents the total specific binding of [35S]GTPγS. The level of basal activity was defined as 100% and is presented with a dotted line. Points represent means ± S.E.M. for at least three experiments performed in triplicate.

[1] = rat brain membrane homogenates, basal activity = 100%
[2] = rat brain membrane homogenates, logarithm of EC50, negative sign printed

SMILES | Emax ± S.E.M. (maximal G-protein efficacy) [1] | LogEC50 ± S.E.M. (ligand potency) [2] | agonist, antagonist or inverse agonist nature | pEC50 (rat brain membrane homogenates) | pEC50 | Emax ± S.E.M. (maximal G-protein efficacy) | LogEC50 ± S.E.M. (ligand potency) | maximum efficacy (Emax) above basal activity
Cc1c(C(=O)NC2CCNCC2)nn(-c2ccc(Cl)cc2Cl)c1-n1cccc1 [Compound 5] | 99.2 ± 46.1% | ambiguous ^* | – | – | – | – | – | –
Cc1c(C(=O)NC2CCN(C(=O)[C@H](Cc3ccccc3)NC(=O)CNC(=O)[C@@H](C)NC(=O)[C@@H](N)Cc3ccc(O)cc3)CC2)nn(-c2ccc(Cl)cc2Cl)c1-n1cccc1 [Compound 9] | 36.62 ± 10.35% | −5.44 ± 0.21 | inverse agonist | 5.44 | – | – | – | –
C[C@@H](NC(=O)[C@@H](N)Cc1ccc(O)cc1)C(=O)NCC(=O)N[C@@H](Cc1ccccc1)C(N)=O [Compound 10, Tyr-D-Ala-Gly-Phe-NH2, reference compound] | – | – | agonist | – | 7.09 | 161.5 ± 4.08% | −7.09 ± 0.22 (81.3 nM) | ~70%

Source: article PMC6009935 (Journal of Enzyme Inhibition and Medicinal Chemistry, 2017)
